Consider 1 compound from patent US11000574B2, “Hyaluronic acid containing compositions for prevention of the formation of post-surgical scars and post-surgical adhesions” (PERGAMUM AB, priority 2009, dated 2021).

Bridge positions count the residues as written; N and C are the ends. Peptide text beside a SMILES is read from it.

Data set [1] is described as follows: In vitro release of PXL01 from sodium hyaluronate gel. Format: physicochemical. To be noted: 6 mg/ml PXL01 in 1.5% sodium hyaluronate, 37° C., PBS pH 7.4, within 1 hour. The method, then:
(§1) PXL01 dissolved in sodium chloride solution was added to 2.5% sodium hyaluronate solution at a volume ratio of 2/5 PXL01 solution and 3/5 sodium hyaluronate solution, to obtain 1.5 or 6 mg/ml PXL01 in 1.5% sodium hyaluronate. The solutions were homogenized by drawing the mixtures several times through 2.1 mm diameter needles.
0.25 ml of the formulated product was placed into the well of the tissue culture plate (24-Flat Well Tissue Culture Plate, Techno Plastic Products AG), resulting in a thin film of approximately 1.3 mm. The plates were placed into thermostat (37° C.) for 1 h to allow the product to reach the temperature of 37° C. 0.5 ml of the release medium (PBS, pH 7.4) re-equilibrated at 37° C. was carefully layered over the surface of the gel and the tissue culture plates were transferred into a thermostatic shaker (60 rpm, 37° C.). At predetermined time intervals, 10 microl aliquots of the aqueous solution were withdrawn from the release media. The concentration of PXL01 released was monitored at wavelength of 230 nm using a spectrophotometric measurement. Because the measurement of absorbance at 230 nm could detect the peptide as well as dissolved sodium hyaluronate in the release medium, a control release medium was used which has the same amount of sodium hyaluronate without any PXL01 as that of sodium hyaluronate with the drug.

The subject of data set [2] is post-surgical intra-abdominal adhesions. The data set is described as follows: Sidewall defect-cecum abrasion model in rat (post-surgical adhesion prevention). Format: in vivo, Sprague-Dawley rats. Conditions: for adhesion formation compared with control group: rat, 6 days after surgery. The method, then: Female Sprague-Dawley rats (200-250 g, Charles River Laboratories, Sulzfeldt, Germany) were kept in a 12 hours light-dark cycle and were cared for in accordance with regulations for the protection of laboratory animals. The study was performed after prior approval from the local ethical committee.
Cecum abrasion and excision of the abdominal wall were performed to induce de novo adhesions as described previously (Harris et al. 1995. Analysis of the kinetics of peritoneal adhesion formation in the rat and evaluation of potential antiadhesive agents. Surgery 117, 663-669). Briefly, the rats were anaesthetized with isoflurane (Isoba®vet, Shering-Plough Animal Health, Farum, Denmark) and buprenorfin (48 microg/kg, Temgesic, Shering-Plough, Brussels, Belgium) was given as post-operative pain reliever. A 5-cm-long midline incision of the abdomen was performed and a rectangle full thickness injury (5 mm×25 mm) was made on the peritoneal wall through both the parietal peritoneum and the muscular fascia. Also, an area of the serous membrane on the both sides of the cecum, approximately 10 mm×15 mm, was gently rubbed using cotton gauze until petechial hemorrhages appeared. The rats were randomized to untreated control group or treated groups. Excessive blood from the injury was removed and the test substance was applied over the abraded areas using a syringe. The laparotomy wound was closed with a continuous suture and the skin was closed with metal clips (Appose ULC35W, TycoHealthcare Group LP, Norwalk, Conn., US). […] The abdomen was opened and the adhesions were scored by an evaluator blinded to the treatment. The incidence of adhesions between abdominal incision and the abraded cecum was quantified as a percentage of animals developing wall to wall adhesions connecting these injuries, in each group. […] Finally, the percentage of rats free from any abdominal adhesions was assessed in each group. Any possible signs of peritoneal inflammation (erythema and/or edema) or disrupted wound healing were recorded in connection to the necropsies. […]

Data set [3] can be described thus: Solubility and stability of PXL01 in sodium hyaluronate. Format: physicochemical. The procedure:
as §1
PXL01 concentration and homogeneity in sodium hyaluronate were determined by high performance liquid chromatography with UV detector (Agilent model 1100) at 220 nm. The analytical column used was a Vydac 218TP (C18, 5 μm, 250×4.6 mm). The mobile phases used (0.1% TFA in water containing 1% acetonitrile (solvent A) and 0.1% TFA in acetonitrile (solvent B)) were run at a gradient with a flow rate of 1.0 ml/min. Diluted PXL01 standards were applied to create calibration curves.
Samples were prepared by adding hyaluronidase solution (Hyaluronidase from Streptomyces hyalurolyticus, Sigma-Aldrich, St Louis, Mo.) with an enzyme activity of 500 units/ml to sample solutions. The mixtures were agitated for 2 h at room temperature and samples were diluted as needed with TFA in water, followed by additional mixing. The samples were centrifuged at 7000 rpm for 5 min before injection to the column.

As to `CC[C@H](C)[C@H](NC(=O)[C@@H]1CSSC[C@H](NC(=O)[C@H](CCCCN)NC(=O)[C@@H](NC(=O)[C@H](C)NC(=O)[C@H](CCC(=O)O)NC(C)=O)[C@@H](C)O)C(=O)N[C@@H](Cc2ccccc2)C(=O)N[C@@H](CCC(N)=O)C(=O)N[C@@H](Cc2c[nH]c3ccccc23)C(=O)N[C@@H](CCC(N)=O)C(=O)N[C@@H](CCCNC(=N)N)C(=O)N[C@@H](CC(N)=O)C(=O)N[C@@H](CCSC)C(=O)N[C@@H](CCCNC(=N)N)C(=O)N[C@@H](CCCCN)C(=O)N[C@@H](C(C)C)C(=O)N[C@@H](CCCNC(=N)N)C(=O)NCC(=O)N2CCC[C@H]2C(=O)N2CCC[C@H]2C(=O)N[C@@H](C(C)C)C(=O)N[C@@H](CO)C(=O)N1)C(=O)N[C@@H](CCCCN)C(=O)N[C@@H](CCCNC(=N)N)C(N)=O` [PXL01] (Ac-EATKCFQWQRNMRKVRGPPVSCIKR-NH2; disulfide 5-22), the “PXL01 released from the sodium hyaluronate gel formulation (cumulative drug released)” value in data set [1] is on record as “approximately 70%”. In addition, the “adhesion formation compared with control group” value in data set [2] (3 mg of PXL01 in water solution, single dose in connection to the surgery) is “No significant reduction”. The “adhesion formation compared with control group” value in data set [2] (3 doses of 1 mg of PXL01 in water solution (at operation, 24 and 48 h post-surgery)) is “marked reduction”. Also, the “adverse events (listlessness, peritoneal inflammation, inhibition of wound healing)” value in data set [2] (rats treated with PXL01 at any concentration) is given as “No obvious adverse events”. For the same compound, in data set [3], the “solubility in sodium hyaluronate” value is “readily soluble” and the “stability in sodium hyaluronate” value was “sufficiently stable”.
